Assay results taken from patent US20250243196A1, “CITRON KINASE INHIBITORS” (The Cleveland Clinic Foundation, priority 2021, published 2025).

Legend:
Assay type in all cases: biochemical
Plk3(h) = Plk3(h) (Homo sapiens (Human), UniProt Q9H4B4); test: KinaseProfiler panel; design: dose or concentration left out as unconfirmed; conditions: activity remaining
CaMKIIδ(h) = CaMKIIδ(h) (Homo sapiens (Human), UniProt Q13557); test: KinaseProfiler panel; design: dose or concentration left out as unconfirmed; conditions: activity remaining
STK32B(h) = STK32B(h) (Homo sapiens (Human), UniProt Q9NY57); test: KinaseProfiler panel; design: dose or concentration left out as unconfirmed; conditions: activity remaining
TrkB(h) = TrkB(h) (Homo sapiens (Human), UniProt Q16620); test: KinaseProfiler panel; design: dose or concentration left out as unconfirmed; conditions: activity remaining
Chain of TrkB(h) (Q16620 32-822): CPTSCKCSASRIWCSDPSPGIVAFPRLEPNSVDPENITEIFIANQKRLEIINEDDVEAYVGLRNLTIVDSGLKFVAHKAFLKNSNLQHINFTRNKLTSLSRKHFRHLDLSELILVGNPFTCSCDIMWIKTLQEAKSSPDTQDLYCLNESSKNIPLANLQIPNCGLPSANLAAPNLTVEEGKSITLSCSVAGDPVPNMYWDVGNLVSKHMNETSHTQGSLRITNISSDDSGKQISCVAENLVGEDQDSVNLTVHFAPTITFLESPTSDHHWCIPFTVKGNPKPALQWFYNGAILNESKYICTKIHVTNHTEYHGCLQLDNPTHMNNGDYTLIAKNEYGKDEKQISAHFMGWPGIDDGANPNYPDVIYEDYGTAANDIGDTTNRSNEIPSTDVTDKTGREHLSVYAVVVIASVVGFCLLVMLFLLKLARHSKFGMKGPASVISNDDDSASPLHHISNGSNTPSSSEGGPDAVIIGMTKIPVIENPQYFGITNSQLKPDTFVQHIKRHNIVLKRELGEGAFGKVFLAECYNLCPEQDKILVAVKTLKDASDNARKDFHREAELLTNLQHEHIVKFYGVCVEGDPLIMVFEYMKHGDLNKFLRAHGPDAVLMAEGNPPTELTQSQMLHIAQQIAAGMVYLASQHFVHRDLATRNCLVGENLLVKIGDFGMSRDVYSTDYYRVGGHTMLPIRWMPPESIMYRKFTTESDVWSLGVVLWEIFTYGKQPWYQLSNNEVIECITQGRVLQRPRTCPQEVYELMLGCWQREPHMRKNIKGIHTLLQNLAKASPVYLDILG

MOK(h) = MOK(h) (Homo sapiens (Human), UniProt Q9UQ07); test: KinaseProfiler panel; conditions: activity remaining
ROCK-I(h) = ROCK-I(h) (Homo sapiens (Human), UniProt Q13464); test: KinaseProfiler panel; design: dose or concentration left out as unconfirmed; conditions: activity remaining
GRK3(h) = GRK3(h) (Homo sapiens (Human), UniProt P35626); test: KinaseProfiler panel; design: dose or concentration left out as unconfirmed; conditions: activity remaining
Snk(h) = Snk(h) (Homo sapiens (Human), UniProt Q9NYY3); test: KinaseProfiler panel; design: dose or concentration left out as unconfirmed; conditions: activity remaining
ROCK-2 = ROCK-2 (Homo sapiens (Human), UniProt O75116); test: KinaseProfiler radiometric assay (14-451KP); conditions: mean of at least two independent experiments
Text: (§1) In another aspect, disclosed is a method of inhibiting citron kinase in a sample, comprising contacting the sample with a compound described herein (e.g., a compound of formula (I) or a pharmaceutically acceptable salt thereof), or a pharmaceutical composition described herein (e.g., a pharmaceutical composition comprising a compound of formula (I) or a pharmaceutically acceptable salt thereof), in an amount effective to inhibit citron kinase. In some embodiments, the step of contacting the sample with the compound comprises administering the compound to a subject (e.g., a subject) suffering from cancer. Methods of determining kinase inhibition are well known in the art. For example, kinase activity of an enzyme and the inhibitory capacity of a test compound can be determined by measuring enzyme specific phosphorylation of a substrate. Commercial assays and kits can be employed. For example, kinase inhibition can be determined using a radiometric binding assay, such as using KinaseProfiler™ technology (Eurofins Discovery). This assay method directly detects product formation without the use of modified substrates or coupling enzymes. Test compounds are incubated with kinase, substrate, required cofactors and radioisotope labeled ATP. Following incubation, unreacted radioactive ATP is removed by washing and incorporation of the radiolabeled phosphate into the kinase substrate is assayed to detect phosphoryltransferase activity, which is directly proportional to the amount of phosphorylated substrate. Inhibition of the kinase by a kinase inhibitor prevents phosphorylation of the substrate and thereby limits the incorporation of radiolabeled phosphate. Such an assay is compatible with a microwell assay format, allowing simultaneous determination of IC50 of multiple compounds.
(§2) The effect of various compounds on the inhibition of other kinases has also been determined. Table 2 reports measured IC50 values; value units are nanomolar inhibition.

Hck(h) = Hck(h) (Homo sapiens (Human), UniProt P08631); test: KinaseProfiler panel; design: dose or concentration left out as unconfirmed; conditions: activity remaining
NDR2(h) = NDR2(h) (Homo sapiens (Human), UniProt Q9Y2H1); test: KinaseProfiler panel; design: dose or concentration left out as unconfirmed; conditions: activity remaining
NIM1(h) = NIM1(h) (Homo sapiens (Human), UniProt Q8IY84); test: KinaseProfiler panel; design: dose or concentration left out as unconfirmed; conditions: activity remaining
TSSK3(h) = TSSK3(h) (Homo sapiens (Human), UniProt Q96PN8); test: KinaseProfiler panel; design: dose or concentration left out as unconfirmed; conditions: activity remaining
Chain of TSSK3(h) (Q96PN8 whole entry): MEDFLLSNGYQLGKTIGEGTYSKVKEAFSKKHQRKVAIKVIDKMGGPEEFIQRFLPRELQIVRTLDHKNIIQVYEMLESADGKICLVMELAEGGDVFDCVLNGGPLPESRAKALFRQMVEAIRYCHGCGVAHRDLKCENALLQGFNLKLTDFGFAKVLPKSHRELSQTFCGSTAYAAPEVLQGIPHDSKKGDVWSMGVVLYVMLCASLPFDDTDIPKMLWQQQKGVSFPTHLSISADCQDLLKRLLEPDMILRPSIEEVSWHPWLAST

Citron kinase = Citron kinase (Homo sapiens (Human), UniProt O14578); test: Radiometric citron kinase assay (Eurofins Cat #16-040KP); conditions: mean of at least two independent assays; read-out: Radiometric CitK IC50
Chain of Citron kinase (O14578 whole entry): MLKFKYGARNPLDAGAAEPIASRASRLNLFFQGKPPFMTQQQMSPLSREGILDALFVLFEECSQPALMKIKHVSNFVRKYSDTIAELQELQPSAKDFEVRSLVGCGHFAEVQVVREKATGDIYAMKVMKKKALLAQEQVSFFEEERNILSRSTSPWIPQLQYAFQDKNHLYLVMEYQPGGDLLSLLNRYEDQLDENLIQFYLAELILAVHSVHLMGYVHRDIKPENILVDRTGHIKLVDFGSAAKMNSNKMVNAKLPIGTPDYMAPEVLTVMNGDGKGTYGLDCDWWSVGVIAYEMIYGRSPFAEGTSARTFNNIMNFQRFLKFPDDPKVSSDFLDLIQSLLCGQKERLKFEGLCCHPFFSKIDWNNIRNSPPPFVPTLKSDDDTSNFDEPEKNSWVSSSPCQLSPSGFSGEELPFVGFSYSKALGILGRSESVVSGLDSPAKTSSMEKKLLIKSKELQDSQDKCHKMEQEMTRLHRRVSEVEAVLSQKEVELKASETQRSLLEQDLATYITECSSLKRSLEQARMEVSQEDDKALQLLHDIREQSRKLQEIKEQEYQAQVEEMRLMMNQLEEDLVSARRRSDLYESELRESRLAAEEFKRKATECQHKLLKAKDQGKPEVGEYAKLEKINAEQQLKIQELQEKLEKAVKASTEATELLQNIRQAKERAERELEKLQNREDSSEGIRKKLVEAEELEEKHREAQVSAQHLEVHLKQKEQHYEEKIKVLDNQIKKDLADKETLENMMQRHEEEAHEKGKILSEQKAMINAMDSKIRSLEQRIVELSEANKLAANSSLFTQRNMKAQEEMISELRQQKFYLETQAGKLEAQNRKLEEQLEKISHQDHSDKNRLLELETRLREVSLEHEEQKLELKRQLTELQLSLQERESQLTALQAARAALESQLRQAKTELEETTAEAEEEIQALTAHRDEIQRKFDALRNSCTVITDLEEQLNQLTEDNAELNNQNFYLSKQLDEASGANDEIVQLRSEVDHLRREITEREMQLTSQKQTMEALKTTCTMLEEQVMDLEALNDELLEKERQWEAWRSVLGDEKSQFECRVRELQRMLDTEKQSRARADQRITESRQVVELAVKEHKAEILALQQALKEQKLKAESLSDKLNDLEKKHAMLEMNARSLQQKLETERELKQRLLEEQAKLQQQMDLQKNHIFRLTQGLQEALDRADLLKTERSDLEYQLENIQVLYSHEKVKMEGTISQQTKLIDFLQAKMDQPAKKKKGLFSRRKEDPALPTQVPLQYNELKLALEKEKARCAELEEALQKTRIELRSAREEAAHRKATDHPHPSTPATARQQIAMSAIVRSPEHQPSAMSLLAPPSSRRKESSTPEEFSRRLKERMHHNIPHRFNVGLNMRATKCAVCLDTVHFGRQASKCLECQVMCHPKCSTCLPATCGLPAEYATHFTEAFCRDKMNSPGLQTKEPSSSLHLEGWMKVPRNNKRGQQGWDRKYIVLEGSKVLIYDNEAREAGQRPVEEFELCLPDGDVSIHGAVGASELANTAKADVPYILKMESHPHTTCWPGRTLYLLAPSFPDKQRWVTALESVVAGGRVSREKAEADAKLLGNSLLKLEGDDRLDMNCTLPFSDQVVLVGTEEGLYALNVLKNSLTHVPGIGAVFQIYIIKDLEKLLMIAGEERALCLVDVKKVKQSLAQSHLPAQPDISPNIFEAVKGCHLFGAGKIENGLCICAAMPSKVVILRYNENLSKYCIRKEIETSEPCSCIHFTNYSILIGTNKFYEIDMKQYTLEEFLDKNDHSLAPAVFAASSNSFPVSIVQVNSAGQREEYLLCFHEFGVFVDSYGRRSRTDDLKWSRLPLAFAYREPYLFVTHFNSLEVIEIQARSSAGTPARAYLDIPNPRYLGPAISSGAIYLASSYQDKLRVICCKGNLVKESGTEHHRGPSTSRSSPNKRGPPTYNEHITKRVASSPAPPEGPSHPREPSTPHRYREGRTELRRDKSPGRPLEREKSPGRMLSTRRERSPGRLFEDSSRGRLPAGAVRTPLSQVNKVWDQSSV
Procedure, shortened: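 Radiometric KinaseProfiler format: test compound incubated with kinase, substrate, cofactors and radiolabelled ATP; unreacted ATP washed away and radiolabelled phosphate incorporated into substrate measured. IC50 derived from inhibition of phosphorylation. Values are means of at least two independent assays.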

CSK(h) = CSK(h) (Homo sapiens (Human), UniProt P41240); test: KinaseProfiler panel; design: dose or concentration left out as unconfirmed; conditions: activity remaining
c-RAF(h) = c-RAF(h) (Homo sapiens (Human), UniProt P04049); test: KinaseProfiler panel; design: dose or concentration left out as unconfirmed; conditions: activity remaining
PAK2(h) = PAK2(h) (Homo sapiens (Human), UniProt Q13177); test: KinaseProfiler panel; design: dose or concentration left out as unconfirmed; conditions: activity remaining
Chain of PAK2(h) (Q13177 whole entry): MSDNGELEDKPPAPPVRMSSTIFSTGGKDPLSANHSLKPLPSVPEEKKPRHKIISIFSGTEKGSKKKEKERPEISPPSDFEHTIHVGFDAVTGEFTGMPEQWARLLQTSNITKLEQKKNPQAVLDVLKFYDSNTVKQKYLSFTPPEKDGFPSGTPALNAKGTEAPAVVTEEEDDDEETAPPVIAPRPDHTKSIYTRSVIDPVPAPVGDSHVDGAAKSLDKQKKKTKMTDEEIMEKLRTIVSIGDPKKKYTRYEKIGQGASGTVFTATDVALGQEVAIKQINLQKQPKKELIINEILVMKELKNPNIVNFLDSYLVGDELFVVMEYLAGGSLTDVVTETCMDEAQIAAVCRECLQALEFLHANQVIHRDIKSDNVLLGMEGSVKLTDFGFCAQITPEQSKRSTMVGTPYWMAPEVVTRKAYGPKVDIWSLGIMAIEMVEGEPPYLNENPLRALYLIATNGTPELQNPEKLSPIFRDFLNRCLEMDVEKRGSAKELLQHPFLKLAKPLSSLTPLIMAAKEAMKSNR

HIPK4 = HIPK4 (Homo sapiens (Human), UniProt Q8NE63); test: KinaseProfiler radiometric assay (15-003KP); conditions: mean of at least two independent experiments
Chain of HIPK4 (Q8NE63 whole entry): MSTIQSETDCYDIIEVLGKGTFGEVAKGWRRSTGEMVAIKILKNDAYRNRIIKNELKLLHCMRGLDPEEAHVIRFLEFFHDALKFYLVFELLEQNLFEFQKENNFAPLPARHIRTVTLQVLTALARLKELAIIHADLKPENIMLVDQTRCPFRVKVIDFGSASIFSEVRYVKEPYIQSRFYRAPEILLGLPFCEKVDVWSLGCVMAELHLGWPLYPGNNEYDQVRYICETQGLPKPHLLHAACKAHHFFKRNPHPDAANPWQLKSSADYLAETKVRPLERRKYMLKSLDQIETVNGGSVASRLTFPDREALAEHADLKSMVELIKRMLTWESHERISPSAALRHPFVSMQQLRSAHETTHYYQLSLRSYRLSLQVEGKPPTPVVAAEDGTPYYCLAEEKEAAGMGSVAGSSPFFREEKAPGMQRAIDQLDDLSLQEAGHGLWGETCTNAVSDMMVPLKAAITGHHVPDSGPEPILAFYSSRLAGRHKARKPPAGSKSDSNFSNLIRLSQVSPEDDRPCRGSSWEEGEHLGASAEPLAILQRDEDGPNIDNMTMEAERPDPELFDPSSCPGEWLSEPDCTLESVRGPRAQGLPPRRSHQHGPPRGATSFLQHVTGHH
Text: as §1, with “Test compounds are incubated with kinase, substrate, required cofactors and radioisotope labeled ATP. Following incubation, unreacted radioactive ATP is removed by washing and incorporation of the radiolabeled phosphate into the kinase substrate is assayed to detect phosphoryltransferase activity, which is directly proportional to the amount of phosphorylated substrate. Inhibition of the kinase by a kinase inhibitor prevents phosphorylation of the substrate and thereby limits the incorporation of radiolabeled phosphate. Such an assay is compatible with a microwell assay format, allowing simultaneous determination of IC50 of multiple compounds.” left out
as §2

Plk1(h) = Plk1(h) (Homo sapiens (Human), UniProt P53350); test: KinaseProfiler panel; design: dose or concentration left out as unconfirmed; conditions: activity remaining
TrkA(h) = TrkA(h) (Homo sapiens (Human), UniProt P04629); test: KinaseProfiler panel; design: dose or concentration left out as unconfirmed; conditions: activity remaining
Chain of TrkA(h) (P04629 33-796): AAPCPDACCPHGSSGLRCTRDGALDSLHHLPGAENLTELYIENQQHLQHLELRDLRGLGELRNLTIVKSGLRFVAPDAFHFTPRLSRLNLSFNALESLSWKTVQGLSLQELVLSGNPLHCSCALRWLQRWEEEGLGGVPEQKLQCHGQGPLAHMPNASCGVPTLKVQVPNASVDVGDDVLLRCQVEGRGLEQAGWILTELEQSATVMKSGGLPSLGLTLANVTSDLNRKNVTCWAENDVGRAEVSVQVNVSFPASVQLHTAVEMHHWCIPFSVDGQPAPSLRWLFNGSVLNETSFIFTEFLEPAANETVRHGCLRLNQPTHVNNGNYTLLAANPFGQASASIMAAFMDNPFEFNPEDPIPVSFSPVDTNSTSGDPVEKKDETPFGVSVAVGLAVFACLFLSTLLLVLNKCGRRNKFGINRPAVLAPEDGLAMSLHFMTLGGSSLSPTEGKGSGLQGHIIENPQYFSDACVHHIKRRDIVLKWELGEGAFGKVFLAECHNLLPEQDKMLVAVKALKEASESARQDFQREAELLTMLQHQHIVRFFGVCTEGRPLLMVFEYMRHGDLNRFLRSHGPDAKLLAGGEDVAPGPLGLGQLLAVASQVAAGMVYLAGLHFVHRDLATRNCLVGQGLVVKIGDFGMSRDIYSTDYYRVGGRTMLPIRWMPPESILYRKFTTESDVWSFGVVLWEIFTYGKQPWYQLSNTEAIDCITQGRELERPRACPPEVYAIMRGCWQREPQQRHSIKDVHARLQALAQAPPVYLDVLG

ASK1(h) = ASK1(h) (Homo sapiens (Human), UniProt Q99683); test: KinaseProfiler panel; design: dose or concentration left out as unconfirmed; conditions: activity remaining

Cc1cc2c(-c3ccc(NC(=O)[C@H](N)CC(C)(C)C)cc3C)ccnc2[nH]1 [Compound F-90, (2R)-2-Amino-4,4-dimethyl-N-[3-methyl-4-(2-methyl-1H-pyrrolo[2,3-b]pyridin-4-yl)phenyl]pentanamide]
% Activity (Plk3(h)): 100%
% Activity (CaMKIIδ(h)): 96%
% Activity (STK32B(h)): 115%
% Activity (TrkB(h)): 84%
% Activity (MOK(h)): 90%
% Activity (ROCK-I(h)): 96%
% Activity (GRK3(h)): 81%
% Activity (Snk(h)): 94%
IC50 (ROCK-2): > 3000 nM
% Activity (Hck(h)): 99%
% Activity (NDR2(h)): 107%
% Activity (NIM1(h)): 112%
% Activity (TSSK3(h)): 96%
IC50 (Citron kinase): 12 nM
% Activity (CSK(h)): 92%
% Activity (c-RAF(h)): 106%
% Activity (PAK2(h)): 95%
IC50 (HIPK4): 2280 nM
% Activity (Plk1(h)): 111%
% Activity (TrkA(h)): 105%
% Activity (ASK1(h)): 100%
